Experimental findings from US10919903B2, “Nitrogen-containing heterocyclic compounds as FXR modulators” (Hepagene Therapeutics (HK) Limited, priority 2016, dated 2021) are described below.

One experiment has as its target T1, FXR (Homo sapiens, UniProt Q96RI1).
T1 construct: expressed in transfected cells; host or cells: HEK293T
T1 sequence (Q96RI1 1-486): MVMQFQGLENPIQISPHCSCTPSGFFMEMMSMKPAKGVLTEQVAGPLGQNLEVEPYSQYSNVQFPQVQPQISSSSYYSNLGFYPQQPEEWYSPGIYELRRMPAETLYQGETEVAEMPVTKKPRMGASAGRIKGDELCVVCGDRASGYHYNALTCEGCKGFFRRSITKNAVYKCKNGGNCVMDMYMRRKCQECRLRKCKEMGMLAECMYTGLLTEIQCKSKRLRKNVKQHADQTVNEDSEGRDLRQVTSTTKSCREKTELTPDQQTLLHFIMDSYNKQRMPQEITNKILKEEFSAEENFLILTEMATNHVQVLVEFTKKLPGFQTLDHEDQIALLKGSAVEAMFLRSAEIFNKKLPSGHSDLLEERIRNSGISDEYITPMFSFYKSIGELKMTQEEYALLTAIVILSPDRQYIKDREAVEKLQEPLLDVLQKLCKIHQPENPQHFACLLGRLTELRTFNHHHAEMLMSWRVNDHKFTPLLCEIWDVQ
Put plainly: FXR Transactivation Assay (GAL4 luciferase reporter, pBIND-FXR in HEK293T). Format: cell-based. The settings on record: HEK293T cells. As to the method:
FXR Transactivation Assay
pGL4.35 [luc2P/9XGAL4 UAS/Hygro]
Steady-Glo™ Luciferase Assay System
GW4064 as a positive control
(§1) • 1. Hek293T cells were plated at 1.1*10^6/ml into a 100 mm dish. • 2. […] Cells were incubated at 37° C. under 5% CO2 atmosphere. • 3. All of compounds were 3-fold serial diluted from 10 mM stock for 10 doses in DMSO. • 4. Transfer compound dilutions into 384 well assay plates using liquid workstation. • 5. Seed 25 ul HEK293T cells into 384 well assay plate (prepared step 4) at 0.6*10^5/ml. Cells were incubated at 37° C. under 5% CO2 atmosphere overnight. • 6. Add 25 ul steady-Glo™ Luciferase Assay Reagent into each well of 384-well assay plate. • 7. […] Calculate EC50 by fitting % Activity values and log of compound concentrations to nonlinear regression (dose response−variable slope) with Graphpad 5.0. FXR Coactivator Assay Reagents: LanthaScreen™ TR-FRET Farnesoid X Receptor Coactivator Assay GW4064 as a positive control Process: • 1. All of compounds were 3-fold serial diluted from 10 mM stock for 10 doses in DMSO. • 2. Dilute each 100× agonist serial dilution to 2× using Complete Coregulator buffer G. • 3. Transfer 10 μl of each of the 2× agonist serial dilutions to 384 well assay plates. • 4. Add 5 μl of 4×FXR-LBD to 384 well assay plates. • 5. […] Incubate at room temperature protected from light. • 7. […] Calculate EC50 by fitting % Activity values and log of compound concentrations to nonlinear regression (dose response−variable slope) with Graphpad 5.0.
A general note: Reporter assays use an easily measured gene product as a stand-in for the process of interest.

Another experiment deals with T2, FXR-LBD (Homo sapiens, UniProt Q96RI1).
T2 construct: Add 5 μl of 4×FXR-LBD to 384 well assay plates; purchased
T2 sequence (Q96RI1 262-486 limits assumed): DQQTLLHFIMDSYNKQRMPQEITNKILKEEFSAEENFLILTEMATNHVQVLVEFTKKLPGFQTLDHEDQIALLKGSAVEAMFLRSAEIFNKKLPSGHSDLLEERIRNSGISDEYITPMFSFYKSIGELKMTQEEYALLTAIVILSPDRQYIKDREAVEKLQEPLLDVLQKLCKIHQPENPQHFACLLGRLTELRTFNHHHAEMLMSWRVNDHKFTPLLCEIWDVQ
Put plainly: FXR Coactivator Assay (LanthaScreen TR-FRET). Format: biochemical. As to the method: as §1

For orientation: EC50 means the concentration at which the effect is half-maximal. In the case of `COc1cc(C(=O)O)cc2sc(N3CCN(Cc4c(-c5c(Cl)cccc5Cl)noc4C(C)C)C(C)(C)C3)nc12` [II-22, 2-(4-[[3-(2,6-Dichlorophenyl)-5-(propan-2-yl)-1,2-oxazol-4-yl]methyl]-3,3-dimethylpiperazin-1-yl)-4-methoxy-1,3-benzothiazole-6-carboxylic acid], the EC50 lay in the range of 0.101 to 0.4 µM at FXR and 0.01 to 0.1 µM on FXR-LBD.
As for `COc1cc(C(=O)O)cc2sc(N3CCN(Cc4c(-c5c(Cl)cccc5Cl)noc4C(C)C)C(C)C3)nc12` (centres unmarked) [II-24], the EC50 on FXR and on FXR-LBD was 0.01 to 0.1 µM throughout.
Turning to `COc1cc(C(=O)O)cc2sc(N3CCN(Cc4c(-c5c(Cl)cccc5Cl)noc4C(C)C)C4(CC4)C3)nc12` [II-30], the EC50 on FXR fell in the range of 0.101 to 0.4 µM; at FXR-LBD, 0.01 to 0.1 µM.
For `COc1cc(C(=O)O)cc2sc(N3CCCN(Cc4c(-c5c(Cl)cccc5Cl)noc4C(C)C)CC3)nc12` [II-40], in that order: 0.101 to 0.4 µM and 0.01 to 0.1 µM.
As to `COc1cc(C(=O)O)cc2sc(N3CCC(Cc4c(-c5c(Cl)cccc5Cl)noc4C(C)C)CC3)nc12` [II-43], the results for the half-maximal effective concentration (EC50) on FXR and at FXR-LBD were 0.101 to 0.4 µM and 0.01 to 0.1 µM, respectively.
On the same counts, the results for `CC(C)c1cc(C(=O)O)cc2sc(N3CCN(Cc4c(-c5c(Cl)cccc5Cl)noc4C4CC4)C[C@H]3C)nc12` [VII-01, (R)-2-(4-((5-Cyclopropyl-3-(2,6-dichlorophenyl)isoxazol-4-yl)methyl)-2-methylpiperazin-1-yl)-4-isopropylbenzo[d]thiazole-6-carboxylic acid] are 0.01 to 0.1 µM and 0.01 to 0.1 µM.
As to `COc1cc(C(N)=O)cc2sc(N3CCN(Cc4c(-c5c(Cl)cccc5Cl)noc4C(C)C)CC3)nc12` [VIII-01], the results for the EC50 on FXR and at FXR-LBD were 0.101 to 0.4 µM and 0.01 to 0.1 µM, respectively.
